In patent publication US3991202A, “Imidazolium salts” (Janssen Pharmaceutica N.V., priority 1974, dated 1976):
Where two headings read alike, the source gives them in different places.

What was measured:
Format in all cases: cell-based
Cryptococcus neoformans = assay: Antifungal growth inhibition in Sabouraud's liquid medium; settings: Cryptococcus neoformans, 336 h; Cr.n.; tested at 100, 10, 1 μg/ml; read-out: Concentrations in μg/ml for 100% Inhibition of Growth
Experimental: (§1) Tests for the control of fungal organisms were performed using Sabouraud's liquid medium (1 g. of neopeptone Difco and 2 g. of glucose Difco per 100 ml. distilled water) in test tubes, each containing 4.5 ml. of liquid medium, autoclaved at 120° C for 15 minutes. The imidazolium salts were prepared for testing by dissolving in 50% ethanol to a concentration of 20 mg./ml. and thereafter diluting with sterile distilled water to obtain a concentration of 10 mg./ml. Successive decimal dilutions were then made with sterile distilled water to prepare a series of test solutions. In carrying out the test, 0.5 ml. of one of the test solutions is added to 4.5 ml. of Sabouraud's liquid medium to obtain a test medium. In this manner, from appropriate test solution, test media containing 100 μg, 10 μg and 1 μg of imidazolium salt per milliliter of medium were obtained.
(§2) Control tubes were prepared by adding 0.5 ml. of sterile distilled water to 4.5 ml. of medium. Ethanol was also added to simulate the amount which would be present in the test media. Filamentous fungi were incubated at 25° C for two to three weeks. A square block of side 2 mm. was excised and inoculated into the liquid medium. A 3-day old culture on Sabouraud's liquid medium was used for yeasts. The inoculum was 0.05 ml. per tube. All cultures were incubated at 25° C for 14 days.

[1] = tested on: Ctenomyces mentagrophytes; assay: as above; settings: Trichophyton mentagrophytes, 336 h; Ct.m.; tested at 100, 10, 1 μg/ml; read-out: Concentrations in μg/ml for 100% Inhibition of Growth
Experimental: as §1, §2

Trichophyton rubrum = assay: as above; settings: Trichophyton rubrum, 336 h; Tr.r.; tested at 100, 10, 1 μg/ml; read-out: Concentrations in μg/ml for 100% Inhibition of Growth
Experimental: as §1, §2

Microsporum canis = assay: as above; settings: Microsporum canis, 336 h, M.c., read-out: Concentrations in μg/ml for 100% Inhibition of Growth
Experimental: as §1, §2

Erysipelothrix insidiosa = assay: Antibacterial growth inhibition in phenol red dextrose broth; settings: Erysipelothrix rhusiopathiae, 168 h; E. ins.; tested at 100, 10, 1 μg/ml; read-out: Concentration in μ g for 100% Growth Inhibition
Experimental: (§3) The tests on bacteria were performed on cultures on phenol red dextrose broth medium (Difco). By using decimal dilution techniques described for the tests for antifungal activity, test media containing 100 μg, 10 μg and 1 μg of imidazolium salt per milliliter of medium were obtained. The inoculum consisted of a platinum loop (5 mm diameter) from a 24 hour broth culture. Forty-eight hours after incubation, subcultures were made from each culture for the determination of antibacterial activity of the imidazolium salts. After seven days of incubation, observations were made to determine the presence or absence of bacterial growth.

Pseudomonas aeruginosa = assay: as above; settings: 168 h, Ps. aer., tested at 100, 10, 1 μg/ml, read-out: Concentration in μ g for 100% Growth Inhibition
Experimental: as §3

Escherichia coli = assay: as above; settings: 168 h, E. coli, tested at 100, 10, 1 μg/ml, read-out: Concentration in μ g for 100% Growth Inhibition
Experimental: as §3

Streptococcus pyogenes = assay: as above; settings: 168 h, Strep., tested at 100, 10, 1 μg/ml, read-out: Concentration in μ g for 100% Growth Inhibition
Experimental: as §3

[2] = tested on: Salmonella pullorum gallinarum; assay: as above; settings: Salmonella enterica, 168 h; Sp. G.; tested at 100, 10, 1 μg/ml; read-out: Concentration in μ g for 100% Growth Inhibition
Experimental: as §3

[3] = tested on: Staphylococcus hemolyticus; assay: as above; settings: 168 h, Staph., tested at 100, 10, 1 μg/ml, read-out: Concentration in μ g for 100% Growth Inhibition
Experimental: as §3

Row | SMILES | MIC (Cryptococcus neoformans) | MIC [1] | MIC (Trichophyton rubrum) | MIC (Microsporum canis; tested at 100, 10, 1 μg/ml) | MIC (Erysipelothrix insidiosa) | MIC (Pseudomonas aeruginosa) | MIC (Escherichia coli) | MIC (Streptococcus pyogenes) | MIC [2] | MIC [3] | MIC (Microsporum canis; growth observed at 100 μg/ml)
1 | Cc1ccc(OCC[n+]2ccn(CC(OCc3ccc(Cl)cc3Cl)c3ccc(Cl)cc3Cl)c2)cc1 (stereo not drawn) [(CH2)2OC6H4pCH3, 1-[2,4-dichloro-β-(2,4-dichlorobenzyloxy)phenethyl]-3-[2-(p-tolyoxy)ethyl]imidazolium bromide] | 10 µg/mL | 10 µg/mL | 1 µg/mL | 10 µg/mL | 1 µg/mL | 100 µg/mL | 10 µg/mL | 1 µg/mL | 10 µg/mL | 1 µg/mL | 
2 | Clc1ccc(COC(Cn2cc[n+](CCOc3ccccc3)c2)c2ccc(Cl)cc2Cl)c(Cl)c1.[Br-] (stereo not drawn) [(CH2)2OC6H5, 1-[2,4-dichloro-β-(2,4-dichlorobenzyloxy)phenethyl]-3-(2-phenoxyethyl)imidazolium bromide] | 10 µg/mL | 10 µg/mL | 1 µg/mL | 10 µg/mL | 1 µg/mL | 100 µg/mL | 10 µg/mL | 1 µg/mL | 10 µg/mL | 1 µg/mL | 
3 | Cc1ccc(C[n+]2ccn(CC(OCc3ccc(Cl)cc3Cl)c3ccc(Cl)cc3Cl)c2)cc1C.[Cl-] (stereo not drawn) [CH2C6H33,4(CH3)2, 1-[2,4-Dichloro-β-(2,4-dichlorobenzyloxy)phenethyl]-3-(3,4-dimethylbenzyl)imidazolium chloride] | 10 µg/mL | 1 µg/mL | 1 µg/mL | 10 µg/mL | 1 µg/mL | 100 µg/mL | 10 µg/mL | 1 µg/mL | 10 µg/mL | 1 µg/mL | 
4 | OC(C[n+]1ccn(CC(OCc2ccc(Cl)cc2Cl)c2ccc(Cl)cc2Cl)c1)c1ccc(Cl)cc1Cl.[Cl-] (stereo not drawn) [CH2CHOHC6H32,4(Cl)2, 1-[2,4-dichloro-β-(2,4-dichlorobenzyloxy)phenethyl]-3-(2,4dichloro-β-hydroxyphenethyl)imidazolium chloride] | 10 µg/mL | 1 µg/mL | 1 µg/mL | 1 µg/mL | 1 µg/mL | 100 µg/mL | 10 µg/mL | 1 µg/mL | 10 µg/mL | 1 µg/mL | 
5 | O=C(C[n+]1ccn(CC(OCc2ccc(Cl)cc2Cl)c2ccc(Cl)cc2Cl)c1)c1ccc(F)cc1.[Cl-] (stereo not drawn) [CH2COC6H4pF, 1-[2,4-dichloro-β-(2,4-dichlorobenzyloxy)phenethyl]-3-(p-fluorobenzoylmethyl)-imidazolium chloride] | 10 µg/mL | 1 µg/mL | 1 µg/mL | 1 µg/mL | 1 µg/mL | 100 µg/mL | 10 µg/mL | 1 µg/mL | 10 µg/mL | 1 µg/mL | 
6 | Cc1ccccc1NC(=O)C[n+]1ccn(CC(OCc2ccc(Cl)cc2Cl)c2ccc(Cl)cc2Cl)c1 (stereo not drawn) [CH2CONHC6H4oCH3, 1-[2,4-Dichloro-β-(2,4-dichlorobenzyloxy)phenethyl]-3-(N-o-tolylcarbamoylmethyl)imidazolium chloride] | 1 µg/mL | 1 µg/mL | 1 µg/mL | 10 µg/mL | 1 µg/mL | 100 µg/mL | 10 µg/mL | 1 µg/mL | 10 µg/mL | 1 µg/mL | 
7 | O=C(C[n+]1ccn(CC(OCc2ccc(Cl)cc2Cl)c2ccc(Cl)cc2Cl)c1)Nc1ccc(Cl)cc1Cl (stereo not drawn) [CH2CONHC6H32,4(Cl)2, 1-[2,4-dichloro-β-(2,4-dichlorobenzyloxy)phenethyl]-3-[N-(2,4-dichlorophenyl)carbamoylmethyl]imidazolium chloride hydrate] | 1 µg/mL | 10 µg/mL | 10 µg/mL | 10 µg/mL | 1 µg/mL | 100 µg/mL | 10 µg/mL | 1 µg/mL | 10 µg/mL | 1 µg/mL | 
8 | O=C(C[n+]1ccn(CC(OCc2ccc(Cl)cc2)c2ccc(Cl)cc2)c1)Nc1ccc(F)cc1 (stereo not drawn) [pClC6H4/CH2C6H4pCl/CH2CONHC6H4pF, 1-[p-Chloro-β-(p-chlorobenzyloxy)phenethyl]-3-[N-(p-fluorophenyl)carbamoylmethyl]imidazolium chloride] | 100 µg/mL | 1 µg/mL | 10 µg/mL |  | 10 µg/mL | 100 µg/mL | 100 µg/mL | 1 µg/mL | 10 µg/mL | 10 µg/mL | > 100 µg/mL
